Results as given in patent US8709764B2, “Enzymatic demethylation of flavonoids” (Universiteit Gent, priority 2005, dated 2014).

Legend:
human fecal cultures = assay: Incubation of IX with human fecal cultures (E-L; 51 fecal samples) for 3 days; assay type: in vitro ADME
Method: Fecal slurries of 20% (w/v) fresh fecal samples were prepared by homogenizing the feces with phosphate buffered saline (0.1 M, pH 7) containing 1 g/l sodiumthioglycolate as reducing agent. The particulate material was removed by centrifugation (1 min, 500×g). The supernatant is hereafter called “the culture”.
But not all cultures were able to perform this reaction. Therefore, the remaining cultures E-L (10% (v/v)) were incubated for 3 days in Brain Heart Infusion broth (with 0.5 g/l cystein-HCl) under anaerobic conditions with 25 mg/l IX (FIG. 4).
To further investigate these inter-individual differences, a total of 51 fecal samples were incubated for 3 days in Brain Heart Infusion broth (with 0.5 g/l cystein-HCl) under anaerobic conditions, containing 25 mg/l IX (FIG. 5). The results are presented as % 8-PN production relative to the incubated IX concentration and samples were ordered by increasing 8-PN production capacity.

[1] = tested on: selected strain Eubacterium limosum; assay: Fed batch fermentation of IX with selected Eubacterium limosum strain; assay type: in vitro ADME; conditions: fermentor effluent
Method: A fed batch fermentation experiment was designed to use a selected strain Eubacterium limosum as obtained above, to convert methylated prenylflavonoids in a fermentation setting. Fermentation was performed in a Braun Biostat® M fermentor (2 l vessel), filled with 1.5 L Brain Heart Infusion broth (with 0.5 g/l cystein-HCl). Subsequently, the fermentor was sterilized by autoclaving it for 30 min at 121° C. Before inoculation, the fermentor was made anaerobic by flushing the system for 1 h with nitrogen gas. After this, the fermentor was inoculated with a 2-days old E. limosum culture and 25 mg/L IX was added to the fermentation liquid. The fermentation was performed at 37° C. for 2 weeks, without pH control. From day 1 on, three times/day 200 ml anaerobic Brain Heart Infusion broth (with 0.5 g/l cystein-HCl), containing 25 mg/L IX was dosed to the reactor at 10 ml/min and simultaneously […] fermentor content was removed from the system. A 10 ml sample was taken from the effluent, for chemical analysis. This was done at day 0, 1, 2 and afterwards every 2 days. Data were as % conversion (8-PN/(IX+8-PN)). A conversion of 0% (day 0), 43% (day 1) and 100% (day 2 and following days), of IX into 8-PN was obtained.

[2] = tested on: intestinal microbial communities PF+ and PF−; assay: Simulator of the Human Intestinal Microbial Ecosystem (SHIME) dosed with IX; assay type: in vitro ADME
Description: The SHIME consists of a succession of five reactors that represent the different parts of the human gastrointestinal tract. The first two reactors (stomach [reactor 1] and small intestine [reactor 2]) are of the fill-and-draw principle to simulate different steps in food uptake and digestion, with peristaltic pumps adding a defined amount of SHIME feed (3 times/day) and pancreatic and bile liquid to the stomach and duodenum compartment and emptying the respective reactors after specified intervals. The last three compartments (resp. ascending [reactor 3], transverse [reactor 4] and descending colon [reactor 5]) are continuously stirred reactors with constant volume and pH control. Retention time and pH of the different vessels were chosen in order to resemble in vivo conditions in the different parts of the gastrointestinal tract. The passage of food in the small intestine was simulated in reactor 2 by the addition of 60 ml artificial pancreatic and bile liquid, pancreatin and NaHCO3. The temperature of the system was kept at 37° C. by a thermostat and the system was kept anaerobic by flushing it with N2 for 15 min every day. Inoculum was prepared from faecal matter as described in De Boever et al. (2000) J. Nutrition 130, 2599-2606. Reactor 3, 4, and 5 were filled with nutritional medium and pH was adjusted to the respective pH range. Finally, 50 ml inoculum was added to the last three reactors.
For the present experiment, two of the above described systems were combined as two completely separate reactors, which are driven by the same pumps (pumps with two pump heads, allowing to dose exactly the same amounts of liquids to both systems), have identical pH and temperature control and which receive the same liquid food. This way, all parameters are perfectly controlled and identical, except for the intestinal microbial communities in the 2 systems which can be introduced separately. In this case we introduced a community which was capable to activate methylated prenylflavonoids (PF+) and one which could not (PF−). After a two-week stabilization period in which normal SHIME feed was dosed, 25 mg/L IX was dosed to the SHIME feed for 4 weeks (day 15-44). In the last two weeks the selected Eubacterium limosum strain of example 2, was also administered to the first colon compartment, to simulate the application of the strain as a probiotic (day 30-44).

[3] = Urinary IX and 8-PN excretion in axenic and Human Flora Associated (HFA) rats; assay type: in vivo, rat; conditions: 2 mg IX/kg body weight daily
Method: An experiment with axenic and Human Flora Associated (HFA) rats was performed to test the capacity of the selected strain of example 2 to activate methylated prenylflavonoids in vivo. A total of 12 axenic rats were used for the study. When the rats were 5 weeks old, 3 HFA rats were associated by oral gavage with a freshly voided, homogenized fecal culture which has prenylflavonoid demethylating activity. These HFA rats were designated PF+ rats.
At the same time, 3 HFA rats were associated by oral gavage with a freshly voided, homogenized fecal culture without prenylflavonoid demethylating activity. These HFA rats were designated PF− rats. The remaining rats were kept under sterile conditions. All rats were kept in separate, closed collective cages prior to the start of the experiment.
After 3 weeks of stabilization of the microbial cultures inside the rat intestine, a first experiment was started. After moving the rats to individual metabolism cages, 2 mg IX/kg body weight was daily administered to each rat for 5 days and each day 24 h-pooled urine was collected. After 3 days, the urinary IX and 8-PN excretion was quantified. […]
Herein, the 6 axenic rats were associated with the selected E. limosum strain of example 2 for 7 days by daily oral gavage with a log 9 bacterial suspension. […] On day 7, the urinary IX and 8-PN excretion was quantified.

## COc1cc(O)c(CC=C(C)C)c2c1C(=O)C[C@@H](c1ccc(O)cc1)O2 [IX, 5-O-methyl-8-prenylnaringenin]
Human fecal cultures; fecal cultures E-L, 25 mg/l IX, 3 days anaerobic
  Microbial O-demethylation of IX: only detected in samples E, J and K
Human fecal cultures; fecal samples A-L
  Share of tested fecal samples in which activation of IX occurred: only a third of the tested samples
[1]; day 0
  % conversion (8-PN/(IX+8-PN)): 0%
[1]; day 1
  % conversion (8-PN/(IX+8-PN)): 43%
[1]; day 2 and following days
  % conversion (8-PN/(IX+8-PN)): 100%
[2]; PF+ compartment, after supplementing the E. limosum strain (from day 30)
  Conversion of IX into 8-PN: the activation potential increased
[2]; PF+ compartment, only IX administered (day 15-30)
  Conversion of IX into 8-PN: activation of methoxylated prenylflavonoids was noted in the distal colon parts
[2]; PF− compartment, after supplementing the E. limosum strain (from day 30)
  Conversion of IX into 8-PN: production of the estrogenically active 8-PN was detected in the distal colon part
[2]; PF− compartment, only IX administered (day 15-30)
  Conversion of IX into 8-PN: no conversion occurred
[3]; PF+ HFA rats
  24 h-pooled urinary % 8-PN/(IX + 8-PN) excretion, Mean (Stdev): 55.3 (9.1) %
[3]; PF− HFA rats
  24 h-pooled urinary % 8-PN/(IX + 8-PN) excretion, Mean (Stdev): 23.6 (10.4) %
